In ChEMBL document CHEMBL3044572, “Discovery of 2-(4-cyano-3-trifluoromethylphenyl amino)-4-(4-quinazolinyloxy)-6-piperazinyl(piperidinyl)-s-triazines as potential antibacterial agents” (2012):
In brackets after ≈: the same amount, converted by molar mass. Activity calls are given as the source filed them. The calls are words filed in the database; no cut-off is given here.

Legend:
Salmonella typhi [1] = assay: Antimicrobial activity against Salmonella enterica subsp. enterica serovar Typhi MTCC 733 by agar streak dilution method; assay type: functional
[2] = tested on: Mycobacterium tuberculosis; assay: Antimicrobial activity against Mycobacterium tuberculosis H37Rv by Lowenstein and Jensen method; assay type: functional; details: for MIC: Mycobacterium tuberculosis, H37Rv
Proteus vulgaris [3] = assay: Antimicrobial activity against Proteus vulgaris MTCC 1771 by agar streak dilution method; assay type: functional
Salmonella typhi [4] = assay: Antimicrobial activity against Salmonella enterica subsp. enterica serovar Typhi MTCC 733 by paper disk diffusion method; assay type: functional
Candida albicans [5] = assay: Antimicrobial activity against Candida albicans MTCC 183 by paper-disk diffusion method; assay type: functional
Staphylococcus aureus [6] = assay: Antimicrobial activity against Staphylococcus aureus MTCC 96 by agar streak dilution method; assay type: functional
Shigella flexneri [7] = assay: Antimicrobial activity against Shigella flexneri MTCC 1457 by agar streak dilution method; assay type: functional
Pseudomonas aeruginosa [8] = assay: Antimicrobial activity against Pseudomonas aeruginosa MTCC 741 by paper disk diffusion method; assay type: functional
Proteus vulgaris [9] = assay: Antimicrobial activity against Proteus vulgaris MTCC 1771 by paper disk diffusion method; assay type: functional
Pseudomonas aeruginosa [10] = assay: Antimicrobial activity against Pseudomonas aeruginosa MTCC 741 by agar streak dilution method; assay type: functional
Escherichia coli [11] = assay: Antimicrobial activity against Escherichia coli MTCC 739 by paper disk diffusion method; assay type: functional
Bacillus cereus [12] = assay: Antimicrobial activity against Bacillus cereus MTCC 619 by paper disk diffusion method; assay type: functional
Aspergillus niger [13] = assay: Antimicrobial activity against Aspergillus niger MTCC 282 by agar streak dilution method; assay type: functional
[14] = tested on: Mycobacterium tuberculosis; assay: Antimicrobial activity against Mycobacterium tuberculosis H37Rv by BACTEC MGIT method; assay type: functional; details: for MIC: Mycobacterium tuberculosis, H37Rv
Escherichia coli [15] = assay: Antimicrobial activity against Escherichia coli MTCC 739 by agar streak dilution method; assay type: functional
Klebsiella pneumoniae [16] = assay: Antimicrobial activity against Klebsiella pneumoniae MTCC 109 by agar streak dilution method; assay type: functional
Aspergillus fumigatus [17] = assay: Antimicrobial activity against Aspergillus fumigatus MTCC 343 by agar streak dilution method; assay type: functional
Bacillus cereus [18] = assay: Antimicrobial activity against Bacillus cereus MTCC 619 by agar streak dilution method; assay type: functional
Candida albicans [19] = assay: Antimicrobial activity against Candida albicans MTCC 183 by agar streak dilution method; assay type: functional
Aspergillus clavatus [20] = assay: Antimicrobial activity against Aspergillus clavatus MTCC 1323 by agar streak dilution method; assay type: functional
Aspergillus clavatus [21] = assay: Antimicrobial activity against Aspergillus clavatus MTCC 1323 by paper disk diffusion method; assay type: functional
Klebsiella pneumoniae [22] = assay: Antimicrobial activity against Klebsiella pneumoniae MTCC 109 by paper disk diffusion method; assay type: functional
Aspergillus fumigatus [23] = assay: Antimicrobial activity against Aspergillus fumigatus MTCC 343 by paper-disk diffusion method; assay type: functional
Pseudomonas aeruginosa [24] = assay: Antimicrobial activity against Pseudomonas aeruginosa MTCC 741 at 100 ug/ml by paper disk diffusion method; assay type: functional, organism-based
Shigella flexneri [25] = assay: Antimicrobial activity against Shigella flexneri MTCC 1457 by paper disk diffusion method; assay type: functional
Aspergillus niger [26] = assay: Antimicrobial activity against Aspergillus niger MTCC 282 by paper-disk diffusion method; assay type: functional
Staphylococcus aureus [27] = assay: Antimicrobial activity against Staphylococcus aureus MTCC 96 by paper-disk diffusion method; assay type: functional

| SMILES | MIC (Salmonella typhi [1]) | inhibition (percent inhibition) [2] | MIC (Proteus vulgaris [3]) | inhibition zone (IZ) (Salmonella typhi [4]) | inhibition zone (IZ) (Candida albicans [5]) | MIC (Staphylococcus aureus [6]) | MIC (Shigella flexneri [7]) | inhibition zone (IZ) (Pseudomonas aeruginosa [8]) | inhibition zone (IZ) (Escherichia coli [11]) | MIC (Aspergillus niger [13]) | inhibition (INH) [14] | MIC [14] | MIC (Bacillus cereus [18]) | MIC (Candida albicans [19]) | inhibition zone (IZ) (Klebsiella pneumoniae [22]) | inhibition zone (IZ) (Aspergillus fumigatus [23]) | inhibition zone (IZ) (Pseudomonas aeruginosa [24]) | inhibition zone (IZ) (Shigella flexneri [25]) | inhibition zone (IZ) (Aspergillus niger [26]) | inhibition zone (IZ) (Staphylococcus aureus [27]) | further results |
| --- | --- | --- | --- | --- | --- | --- | --- | --- | --- | --- | --- | --- | --- | --- | --- | --- | --- | --- | --- | --- | --- |
| N#Cc1ccc(Nc2nc(Oc3ncnc4ccccc34)nc(N3CCN(c4cccc(C(F)(F)F)c4)CC3)n2)cc1C(F)(F)F | 25 µg/mL (≈ 39.2 µM) | 99% | 6.25 µg/mL (≈ 9.8 µM) | 25 mm | 27 mm | 3.12 µg/mL (≈ 4.89 µM) | 12.5 µg/mL (≈ 19.6 µM) | 28 mm | 25 mm | 3.12 µg/mL (≈ 4.89 µM) | 99% | 6.25 µg/mL (≈ 9.8 µM) | 3.12 µg/mL (≈ 4.89 µM) | 6.25 µg/mL (≈ 9.8 µM) | 25 mm | 24 mm | inactive | 27 mm | 26 mm | 29 mm | MIC [2]: 6.25 µg/mL (≈ 9.8 µM); inhibition zone (IZ) (Proteus vulgaris [9]): 26 mm; MIC (Pseudomonas aeruginosa [10]): 6.25 µg/mL (≈ 9.8 µM); inhibition zone (IZ) (Bacillus cereus [12]): 28 mm; MIC (Escherichia coli [15]): 25 µg/mL (≈ 39.2 µM); MIC (Klebsiella pneumoniae [16]): 6.25 µg/mL (≈ 9.8 µM); MIC (Aspergillus fumigatus [17]): 12.5 µg/mL (≈ 19.6 µM); MIC (Aspergillus clavatus [20]): 6.25 µg/mL (≈ 9.8 µM); inhibition zone (IZ) (Aspergillus clavatus [21]): 25 mm |
| CC1CC(C)CN(c2nc(Nc3ccc(C#N)c(C(F)(F)F)c3)nc(Oc3ncnc4ccccc34)n2)C1 (centres undefined) | 25 µg/mL (≈ 48 µM) | 99% | 6.25 µg/mL (≈ 12 µM) | 26 mm | 24 mm | 6.25 µg/mL (≈ 12 µM) | 100 µg/mL (≈ 192 µM) | 27 mm | 27 mm | 25 µg/mL (≈ 48 µM) | 99% | 6.25 µg/mL (≈ 12 µM) | 12.5 µg/mL (≈ 24 µM) | 25 µg/mL (≈ 48 µM) | 26 mm | 23 mm | inactive | 22 mm | 22 mm | 27 mm | MIC [2]: 6.25 µg/mL (≈ 12 µM); inhibition zone (IZ) (Proteus vulgaris [9]): 26 mm; MIC (Pseudomonas aeruginosa [10]): 12.5 µg/mL (≈ 24 µM); inhibition zone (IZ) (Bacillus cereus [12]): 26 mm; MIC (Escherichia coli [15]): 6.25 µg/mL (≈ 12 µM); MIC (Klebsiella pneumoniae [16]): 6.25 µg/mL (≈ 12 µM); MIC (Aspergillus fumigatus [17]): 25 µg/mL (≈ 48 µM); MIC (Aspergillus clavatus [20]): 6.25 µg/mL (≈ 12 µM); inhibition zone (IZ) (Aspergillus clavatus [21]): 25 mm |
| N#Cc1ccc(Nc2nc(Oc3ncnc4ccccc34)nc(N3CCN(c4cccc(Cl)c4Cl)CC3)n2)cc1C(F)(F)F | 12.5 µg/mL (≈ 19.6 µM) | 99% | 6.25 µg/mL (≈ 9.79 µM) | 26 mm | 27 mm | 3.12 µg/mL (≈ 4.89 µM) | 12.5 µg/mL (≈ 19.6 µM) | 24 mm | 24 mm | 6.25 µg/mL (≈ 9.79 µM) | 99% | 6.25 µg/mL (≈ 9.79 µM) | 6.25 µg/mL (≈ 9.79 µM) | 6.25 µg/mL (≈ 9.79 µM) | 24 mm | 23 mm | inactive | 26 mm | 25 mm | 29 mm | MIC [2]: 6.25 µg/mL (≈ 9.79 µM); inhibition zone (IZ) (Proteus vulgaris [9]): 26 mm; MIC (Pseudomonas aeruginosa [10]): 12.5 µg/mL (≈ 19.6 µM); inhibition zone (IZ) (Bacillus cereus [12]): 25 mm; MIC (Escherichia coli [15]): 50 µg/mL (≈ 78.3 µM); MIC (Klebsiella pneumoniae [16]): 50 µg/mL (≈ 78.3 µM); MIC (Aspergillus fumigatus [17]): 25 µg/mL (≈ 39.2 µM); MIC (Aspergillus clavatus [20]): 25 µg/mL (≈ 39.2 µM); inhibition zone (IZ) (Aspergillus clavatus [21]): 23 mm |
| COc1ccc(CN2CCN(c3nc(Nc4ccc(C#N)c(C(F)(F)F)c4)nc(Oc4ncnc5ccccc45)n3)CC2)c(OC)c1OC | 25 µg/mL (≈ 37.1 µM) | 99% | 6.25 µg/mL (≈ 9.28 µM) | 25 mm | 26 mm | 3.12 µg/mL (≈ 4.63 µM) | 25 µg/mL (≈ 37.1 µM) | 26 mm | 28 mm | 6.25 µg/mL (≈ 9.28 µM) | 99% | 6.25 µg/mL (≈ 9.28 µM) | 3.12 µg/mL (≈ 4.63 µM) | 12.5 µg/mL (≈ 18.6 µM) | 26 mm | 25 mm | inactive | 24 mm | 25 mm | 29 mm | MIC [2]: 6.25 µg/mL (≈ 9.28 µM); inhibition zone (IZ) (Proteus vulgaris [9]): 25 mm; MIC (Pseudomonas aeruginosa [10]): 12.5 µg/mL (≈ 18.6 µM); inhibition zone (IZ) (Bacillus cereus [12]): 27 mm; MIC (Escherichia coli [15]): 6.25 µg/mL (≈ 9.28 µM); MIC (Klebsiella pneumoniae [16]): 6.25 µg/mL (≈ 9.28 µM); MIC (Aspergillus fumigatus [17]): 6.25 µg/mL (≈ 9.28 µM); MIC (Aspergillus clavatus [20]): 6.25 µg/mL (≈ 9.28 µM); inhibition zone (IZ) (Aspergillus clavatus [21]): 25 mm |
| NC(=O)c1cnccn1 [PYRAZINAMIDE] | – | – | – | – | – | – | – | – | – | – | 99% | 6.25 µg/mL (≈ 50.8 µM) | – | – | – | – | – | – | – | – | – |
| NNC(=O)c1ccncc1 [ISONIAZID] | – | – | – | – | – | – | – | – | – | – | – | 0.2 µg/mL (≈ 1.46 µM) | – | – | – | – | – | – | – | – | – |
| CO[C@H]1/C=C/O[C@@]2(C)Oc3c(C)c(O)c4c(O)c(c(/C=N/N5CCN(C)CC5)c(O)c4c3C2=O)NC(=O)/C(C)=C\C=C\[C@H](C)[C@H](O)[C@@H](C)[C@@H](O)[C@@H](C)[C@H](OC(C)=O)[C@@H]1C [RIFAMPIN] | – | – | – | – | – | – | – | – | – | – | 99% | 0.25 µg/mL (≈ 0.304 µM) | – | – | – | – | – | – | – | – | – |
| N#Cc1ccc(Nc2nc(Oc3ncnc4ccccc34)nc(N3CCN(C(c4ccccc4)c4ccc(Cl)cc4)CC3)n2)cc1C(F)(F)F (centres undefined) | 6.25 µg/mL (≈ 9 µM) | 99% | 50 µg/mL (≈ 72 µM) | 27 mm | 24 mm | 6.25 µg/mL (≈ 9 µM) | 50 µg/mL (≈ 72 µM) | 28 mm | 26 mm | 12.5 µg/mL (≈ 18 µM) | 99% | 6.25 µg/mL (≈ 9 µM) | 6.25 µg/mL (≈ 9 µM) | 25 µg/mL (≈ 36 µM) | 24 mm | 24 mm | inactive | 24 mm | 24 mm | 29 mm | MIC [2]: 6.25 µg/mL (≈ 9 µM); inhibition zone (IZ) (Proteus vulgaris [9]): 23 mm; MIC (Pseudomonas aeruginosa [10]): 6.25 µg/mL (≈ 9 µM); inhibition zone (IZ) (Bacillus cereus [12]): 26 mm; MIC (Escherichia coli [15]): 25 µg/mL (≈ 36 µM); MIC (Klebsiella pneumoniae [16]): 25 µg/mL (≈ 36 µM); MIC (Aspergillus fumigatus [17]): 12.5 µg/mL (≈ 18 µM); MIC (Aspergillus clavatus [20]): 12.5 µg/mL (≈ 18 µM); inhibition zone (IZ) (Aspergillus clavatus [21]): 24 mm |
| O=C(O)c1cn(C2CC2)c2cc(N3CCNCC3)c(F)cc2c1=O [CIPROFLOXACIN] | 0.39 µg/mL (≈ 1.18 µM) | – | 0.39 µg/mL (≈ 1.18 µM) | 30 mm | 33 mm | 1.56 µg/mL (≈ 4.71 µM) | 1.56 µg/mL (≈ 4.71 µM) | 33 mm | 32 mm | 1.56 µg/mL (≈ 4.71 µM) | – | – | 0.39 µg/mL (≈ 1.18 µM) | 1.56 µg/mL (≈ 4.71 µM) | 33 mm | 29 mm | inactive | 32 mm | 30 mm | 30 mm | – |
| CC[C@@H](CO)NCCN[C@@H](CC)CO [ETHAMBUTOL] | – | – | – | – | – | – | – | – | – | – | 99% | 3.12 µg/mL (≈ 15.3 µM) | – | – | – | – | – | – | – | – | – |
